In PubChem BioAssay AID330 (DTP/NCI, 2004):
Values joined by “and” are separate entries in the source; they are usually repeats but may differ in a detail not shown here. Equal values may be shown once. Toxic doses and inconclusive results are not listed. Rule for the calls: active = survival T/C of 150% or more; inactive = T/C below 125% in these data. Square brackets hold non-standard residues; d marks the D form. Peptide text beside a SMILES is read from it. * marks the point of attachment. Cbz = O=C(OCc1ccccc1)*; Nva = CCC[CH](N)C(=O)O

Tested on: P388 leukemia ip, CD2F1 mice, survival T/C
Assay: NCI In Vivo Anticancer Drug Screen. Data for tumor model P388 Leukemia (intraperitoneal) in CD2F1 (CDF1) mice
Settings: endpoint: median survival time, higher = longer survival
Summary of the method: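 Mice carrying the transplanted tumor received test compound or vehicle. Survival was recorded in each group, and the value is the treated-group measurement divided by that of the vehicle-treated control group.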

[1] = dose: 50.0 mg/kg/injection, schedule: Q01DX005 (ip), vehicle: Klucel (hydroxypropylcellulose) (HPC)
[2] = dose: 100.0 mg/kg/injection, schedule: Q01DX005 (ip), vehicle: Klucel (hydroxypropylcellulose) (HPC)
[3] = dose: 200.0 mg/kg/injection, schedule: Q01DX005 (ip), vehicle: Klucel (hydroxypropylcellulose) (HPC)
[4] = dose: 100.0 mg/kg/injection, schedule: Q04DX003 (ip), vehicle: saline with Tween-80
[5] = dose: 200.0 mg/kg/injection, schedule: Q04DX003 (ip), vehicle: saline with Tween-80
[6] = dose: 100.0 mg/kg/injection, schedule: Q01DX009 (ip), vehicle: saline with Tween-80
[7] = dose: 100.0 mg/kg/injection, schedule: Q01DX009 (ip), vehicle: saline
[8] = dose: 60.0 mg/kg/injection, schedule: Q01DX005 (ip), vehicle: saline with Tween-80
[9] = dose: 60.0 mg/kg/injection, schedule: Q01DX005 (ip), vehicle: Klucel (hydroxypropylcellulose) (HPC)
[10] = dose: 120.0 mg/kg/injection, schedule: Q01DX005 (ip), vehicle: Klucel (hydroxypropylcellulose) (HPC)
[11] = dose: 120.0 mg/kg/injection, schedule: Q01DX005 (ip), vehicle: saline with Tween-80
[12] = dose: 240.0 mg/kg/injection, schedule: Q01DX005 (ip), vehicle: saline with Tween-80

Measured: T/C

CN1C2=CCCCC2(C)c2ccccc21 (stereo unspecified)
inactive: dose: 60.0 mg/kg/injection, schedule: Q01DX005 (ip), vehicle: saline 105 % of control | dose: 120.0 mg/kg/injection, schedule: Q01DX005 (ip), vehicle: saline 115 % of control | dose: 240.0 mg/kg/injection, schedule: Q01DX005 (ip), vehicle: saline 118 % of control

CC(C)c1[nH]c2ccccc2c1Cn1ccnc1
inactive: [1] 100 % of control | [2] 114 % of control

Cn1c(=O)c2c(c3cc(O)ccc31)OC(C(C)(C)O)C2 (stereo unspecified)
inactive: [1] 95 % of control | [2] 96 % of control | [3] 86 % of control

S=c1oc2cccc3c2n1CCC3
inactive: [4] 95 % of control | [5] 104 % of control | dose: 400.0 mg/kg/injection, schedule: Q04DX003 (ip), vehicle: saline with Tween-80 100 % of control

CSCCC(N)C(=O)O (stereo unspecified)
inactive: dose: 25.0 mg/kg/injection, schedule: Q01DX005 (ip), vehicle: saline 102 % of control | dose: 25.0 mg/kg/injection, schedule: Q01DX009 (ip), vehicle: other 107 % of control | dose: 25.0 mg/kg/injection, schedule: Q01DX009 (ip), vehicle: saline with Tween-80 103 % of control | dose: 37.5 mg/kg/injection, schedule: Q01DX009 (ip), vehicle: Klucel (hydroxypropylcellulose) (HPC) 122 % of control | dose: 40.0 mg/kg/injection, schedule: Q01DX009 (ip), vehicle: saline with Tween-80 105 % of control | dose: 50.0 mg/kg/injection, schedule: Q01DX005 (ip), vehicle: saline 99 % of control | dose: 50.0 mg/kg/injection, schedule: Q01DX009 (ip), vehicle: other 100 % of control and 107 % of control | dose: 50.0 mg/kg/injection, schedule: Q01DX009 (ip), vehicle: saline with Tween-80 107 % of control | dose: 75.0 mg/kg/injection, schedule: Q01DX009 (ip), vehicle: Klucel (hydroxypropylcellulose) (HPC) 103 % of control | dose: 75.0 mg/kg/injection, schedule: Q01DX009 (ip), vehicle: other 98 % of control and 94 % of control | dose: 80.0 mg/kg/injection, schedule: Q01DX009 (ip), vehicle: saline with Tween-80 100 % of control and 114 % of control | dose: 100.0 mg/kg/injection, schedule: Q01DX005 (ip), vehicle: saline 107 % of control | dose: 100.0 mg/kg/injection, schedule: Q01DX009 (ip), vehicle: other 100 % of control and 107 % of control | [6] 108 % of control | [7] 102 % of control | dose: 150.0 mg/kg/injection, schedule: Q01DX009 (ip), vehicle: other 103 % of control and 106 % of control | dose: 160.0 mg/kg/injection, schedule: Q01DX009 (ip), vehicle: saline with Tween-80 99 % of control and 102 % of control | dose: 200.0 mg/kg/injection, schedule: Q01DX005 (ip), vehicle: saline 101 % of control | dose: 200.0 mg/kg/injection, schedule: Q01DX009 (ip), vehicle: other 110 % of control | dose: 200.0 mg/kg/injection, schedule: Q01DX009 (ip), vehicle: saline 112 % of control | dose: 225.0 mg/kg/injection, schedule: Q01DX009 (ip), vehicle: other 109 % of control | dose: 320.0 mg/kg/injection, schedule: Q01DX009 (ip), vehicle: saline with Tween-80 106 % of control and 97 % of control | dose: 400.0 mg/kg/injection, schedule: Q01DX005 (ip), vehicle: saline 103 % of control | dose: 400.0 mg/kg/injection, schedule: Q01DX009 (ip), vehicle: saline 108 % of control | dose: 800.0 mg/kg/injection, schedule: Q01DX009 (ip), vehicle: saline 108 % of control

Cc1nc(CC#N)c(C(N)=O)c(Nc2ccccc2)n1
inactive: dose: 100.0 mg/kg/injection, schedule: Q01DX001 (ip), vehicle: saline with Tween-80 92 % of control | dose: 200.0 mg/kg/injection, schedule: Q01DX001 (ip), vehicle: saline with Tween-80 92 % of control | dose: 400.0 mg/kg/injection, schedule: Q01DX001 (ip), vehicle: saline with Tween-80 111 % of control

Oc1ccc(CCNCc2ccc3c(c2)OCO3)cc1
inactive: [4] 99 % of control | [5] 95 % of control

C#CC1CC2C3CCC4=CC(=O)CCC4(C)C3CCC2(C)C1N(C)C (stereo unspecified)
inactive: dose: 6.25 mg/kg/injection, schedule: Q01DX005 (ip), vehicle: Klucel (hydroxypropylcellulose) (HPC) 99 % of control | dose: 12.5 mg/kg/injection, schedule: Q01DX005 (ip), vehicle: Klucel (hydroxypropylcellulose) (HPC) 102 % of control | dose: 25.0 mg/kg/injection, schedule: Q01DX005 (ip), vehicle: Klucel (hydroxypropylcellulose) (HPC) 96 % of control

Cc1cc(O)c(N=Nc2cc(C)c(C)cc2[N+](=O)[O-])cc1C
inactive: dose: 50.0 mg/kg/injection, schedule: Q01DX009 (ip), vehicle: Klucel (hydroxypropylcellulose) (HPC) 109 % of control | dose: 100.0 mg/kg/injection, schedule: Q01DX009 (ip), vehicle: Klucel (hydroxypropylcellulose) (HPC) 109 % of control | dose: 200.0 mg/kg/injection, schedule: Q01DX009 (ip), vehicle: Klucel (hydroxypropylcellulose) (HPC) 101 % of control

COP(=O)(O)/C(=N/NS(=O)(=O)c1ccc(C)cc1)c1ccccc1
inactive: dose: 12.5 mg/kg/injection, schedule: Q01DX009 (ip), vehicle: water 96 % of control | dose: 25.0 mg/kg/injection, schedule: Q01DX009 (ip), vehicle: water 96 % of control | dose: 50.0 mg/kg/injection, schedule: Q01DX009 (ip), vehicle: water 93 % of control | dose: 100.0 mg/kg/injection, schedule: Q01DX009 (ip), vehicle: water 98 % of control | dose: 200.0 mg/kg/injection, schedule: Q01DX009 (ip), vehicle: water 98 % of control | dose: 400.0 mg/kg/injection, schedule: Q01DX009 (ip), vehicle: water 97 % of control

CSC1=Nc2cccnc2Nc2cscc21
inactive: dose: 15.0 mg/kg/injection, schedule: Q01DX005 (ip), vehicle: saline with Tween-80 102 % of control | dose: 30.0 mg/kg/injection, schedule: Q01DX005 (ip), vehicle: saline with Tween-80 98 % of control | [8] 112 % of control and 94 % of control

CCCC(NC(=O)OCc1ccccc1)C(=O)NC(CC(C)C)C(=O)O (stereo unspecified) (Cbz-[Nva]-Leu-OH; configuration not given here)
inactive: [1] 112 % of control | [2] 100 % of control | [3] 106 % of control

Cc1cc(NC(=O)CSCC(=O)O)no1
inactive: [9] 98 % of control | [10] 101 % of control | dose: 240.0 mg/kg/injection, schedule: Q01DX005 (ip), vehicle: Klucel (hydroxypropylcellulose) (HPC) 94 % of control

O=C1CCCCCCCCCCC1Br (stereo unspecified)
inactive: [6] 100 % of control | dose: 200.0 mg/kg/injection, schedule: Q01DX009 (ip), vehicle: saline with Tween-80 99 % of control | dose: 400.0 mg/kg/injection, schedule: Q01DX009 (ip), vehicle: saline with Tween-80 105 % of control

C[N+](C)(C)N
inactive: dose: 25.0 mg/kg/injection, schedule: Q01DX009 (ip), vehicle: saline 102 % of control | dose: 50.0 mg/kg/injection, schedule: Q01DX009 (ip), vehicle: saline 100 % of control | [7] 100 % of control

Cc1cc2c(=O)cc(-c3ccccc3)oc2c(C(N)=O)c1C
inactive: [8] 99 % of control | [11] 98 % of control | [12] 93 % of control

N#CC1CCCC(C#N)N1Cc1ccccc1 (stereo unspecified)
inactive: [9] 110 % of control | [10] 106 % of control

COC(=O)CCC(=O)Nc1cc(Cl)c(Cl)cc1Cl
inactive: [8] 100 % of control | [11] 93 % of control | [12] 91 % of control
